From patent publication EP0697407B1, “Pyrimidinedione derivatives and antiarrhythmic compositions containing same” (MITSUI TOATSU CHEMICALS, Inc., priority 1994, dated 1996)

Key:
ventricular muscle = test: Effect on ventricular muscle refractory period (ERP) under ventricular pacing in anesthetized dog; assay type: in vivo, mongrel adult dog; conditions: ventricular pacing at 400 msec
Protocol: According to the method described below, the refractory period was measured before and after the intravenous administration of each test compound, and the percent prolongation of refractory period (ERP) was calculated according to the following equation. ERP prolongation (%) =(W - Y)/(Y)x 100 [formula] where W: Refractory period after administration Y: Refractory period before administration
After a mongrel adult dog was anesthetized by the intravenous (i.v.) administration of 30 mg/kg of pentobarbital, the chest was opened on the right side. Then, a set of silver-silver chloride electrodes spaced by 3 mm was sewn on the right ventricle, and […] electrical stimuli (a duration of 4 msec, and a current intensity equal to twice the threshold) were given at an interval of 400 msec. Thereafter, a small amount of alcohol was injected into a sinus artery in order to destroy the pacemaker activity, and the ventricular refractory period (ERP) was measured under ventricular pacing. Specifically, one train comprised a series of stimuli having an interval of 400 msec, and the interval between trains was usually 400 msec. During measurement of the refractory period, this interval was shortened by decrements of 10 msec, and the interval between trains at which the response to the first stimulus of the train disappeared was regarded as the refractory period. These electrical stimuli were given by programmed stimulation using a heart stimulation apparatus (Diamedical Co., Ltd.; DHM-226-3).

[1] = Stability test in acid aqueous solution (Solution 1 of the Japanese Pharmacopoeia, pH 1.2), remaining compound by HPLC; assay type: physicochemical; conditions: Solution 1 (pH 1.2), 2 mg/ml, stirred at 37°C, HPLC
Protocol: In order to confirm the stability of the compounds of the present invention in an acid aqueous solution, stability was tested on the fumarate of 6-[3-[N-[2-(4-methanesulfonylaminophenyl)ethyl]-N-propylamino]propyl]-1,3-dimethyl-2,4(1H,3H)pyrimidinedione (the compound obtained in Example 118; hereinafter referred to as compound A) which is a compound in accordance with the present invention, and 1,3-dimethyl-6-{2-[N-ethyl-3-phenylpropylamino]ethylamino}2,4(1H,3H)-pyrimidinedione (hereinafter referred to as compound B) which is a pyrimidinedione derivative having a substituted amino group at the 6-position of the pyrimidinedione ring as described in European Publication No. 454,498 A2 and was used for purposes of comparison.
Solution 1 (pH 1.2) described in the Japaense Pharmacopoeia was prepared by adding 7.0 ml of hydrochloric acid and water to 2.0 g of sodium chloride so as to give the final volume of 1,000 ml.
Compounds A and B were dissolved in Solution 1 at a concentration of 2 mg/ml and the resulting solutions were stirred at 37°C. Thus, changes with time in the percentages of the remaining compounds A and B were examined by HPLC.

[2] = Toxicity test (mortality rate 24 hours after administration); conditions: mouse, in vivo, ip; 100 mg/kg (i.p.); twenty-four hours after administration; groups of three mice
Protocol: The test compounds were separately administered to mice (ddy strain, male). The administration of each compound was carried out intraperitoneally (i.p.) in a dose of 100 mg/kg. Twenty-four hours after the administration, the mortality rate of the mice (in groups of three) was examined.

right Purkinje fiber = test: Effect on myocardial action potential duration (APD75) in isolated, perfused Purkinje fiber; assay type: cell-based, mongrel adult dog; conditions: Canis lupus familiaris, 20 min, 20 minutes' incubation, field stimulus of 1 Hz, 37°C, read-out: T (%), percent prolongation of myocardial action potential duration (APD75)
Protocol: After a mongrel adult dog was anesthetized by the intravenous administration of 30 mg/kg of pentobarbital, the heart was excised therefrom. Then, the right Purkinje fiber was isolated in a nutrient fluid (i.e., Tyrode's solution). The isolated right Purkinje fiber was fixed in a constant-temperature bath (20 ml) at 37°C and perfused with Tyrode's solution. In this state, the myocardial action potential duration (APD75) was measured before and after the administration of each test compound. Then, the percent prolongation of myocardial action potential duration (T) after the administration of each test compound was calculated according to the following equation. T(%) =(B - A)/(A)x 100 [formula] where A: APD75 before administration B: APD75 after administration
APD75 was measured as follows: A field stimulus of 1 Hz was given to the right Purkinje fiber, and any change in action potential was detected by a glass microelectrode (10-20 MΩ) penetrated into a Purkinje fiber and monitored on an oscilloscope via an amplifier. The waveform on the oscilloscope was analyzed by means of a computer, and the duration beween the point of action potential generation adn the point of 75% repolarization was defined as APD75. The test compounds shown in Table 2 were separately added to the perfusing nutrient fluid, and after 20 minutes' incubation was recorded. This test was carried out according to the method of Sato et al. [S. Sato, K. Hashimoto; Arzneimittel Forschung, 34(1), 3a, 376-380(1984)].

In the case of `CCCN(CCCc1cc(=O)n(C)c(=O)n1C)CCc1ccc(NS(C)(=O)=O)cc1` [Example 118, 6-[3-[N-[2-(4-methanesulfonylaminophenyl)ethyl]-N-propylamino]propyl]-1,3-dimethyl-2,4(1H,3H)pyrimidinedione], the “ERP (%), percent prolongation of refractory period” value (“ERP (%), percent prolongation” below) (ventricular muscle; Dose 0.1 mg/kg i.v.) is reported as 6.7%, the “ERP (%), percent prolongation” value (ventricular muscle; Dose 0.3 mg/kg i.v.) is reported as 20.0% and the “ERP (%), percent prolongation” value (ventricular muscle; Dose 1.0 mg/kg i.v.) is reported as 33.3%. For the same molecule, the “Percentage of remaining compound” value ([1]; 0 hr) was 100%, the remaining at 3 h ([1]; jp solution 1, 3 hr, read-out: Percentage of remaining compound) was 100% and the remaining at 6 h ([1]; jp solution 1, 6 hr, read-out: Percentage of remaining compound) was 99%. The mortality at 24 h [2] was 0%, the activation at 1 µM (right Purkinje fiber; Dose 1 x 10^-6 M) was 16% and the activation at 10 µM (right Purkinje fiber; Dose 10 x 10^-6 M) was 54%. It also gave an activation at 100 µM (right Purkinje fiber; Dose 100 x 10^-6 M) of 81%.
